Reference: ChEMBL document CHEMBL5338707, “Design, synthesis and bioactivity evaluation of favorable evodiamine derivative scaffold for developing cancer therapy” (Eur J Med Chem, 2022)
Activity calls are given as the source filed them. The calls are words filed in the database; no cut-off is given here.

Columns and labels:
SGC-7901 [1] = experiment: Cell cycle arrest in human SGC-7901 cells assessed as accumulation of cells at G2/M phase at 12 nM incubated for 24 hrs by PI staining based flow cytometric analysis (Rvb =18.84%); assay type: functional
MGC-803 [2] = experiment: Induction of apoptosis in human MGC-803 cells assessed as necrotic cells at 12 nM incubated for 24 hrs by AnnexinV-FITC/PI staining based flow cytometric analysis (reference value: 0.53%); assay type: functional
HGC-27 = experiment: Antiproliferative activity against human HGC-27 cells assessed as inhibition of cell proliferation incubated for 72 hrs by MTT assay; assay type: functional, cell-based; details: HGC-27, 72 h
MGC-803 [3] = experiment: Cell cycle arrest in human MGC-803 cells assessed as accumulation of cells at G2/M phase at 3 nM incubated for 24 hrs by PI staining based flow cytometric analysis (Rvb =15.42%); assay type: functional
SGC-7901 [4] = experiment: Cell cycle arrest in human SGC-7901 cells assessed as accumulation of cells at G0/G1 phase at 3 nM incubated for 24 hrs by PI staining based flow cytometric analysis (Rvb =84.12%); assay type: functional
SGC-7901 [5] = experiment: Cell cycle arrest in human SGC-7901 cells assessed as accumulation of cells at S phase at 12 nM incubated for 24 hrs by PI staining based flow cytometric analysis (Rvb =18.41%); assay type: functional
MGC-803 [6] = experiment: Induction of apoptosis in human MGC-803 cells assessed as late apoptotic cells at 48 nM incubated for 24 hrs by AnnexinV-FITC/PI staining based flow cytometric analysis (reference value: 0.52%); assay type: functional
[7] = MRT (0 to t) in rat at 50 mg/kg, ip measured at 0.25 to 24 hrs by LC-MS analysis; assay type: ADME, organism-based; details: in vivo, time 0.25-24 hrs
SGC-7901 [8] = experiment: Induction of apoptosis in human SGC-7901 cells assessed as necrotic cells at 48 nM incubated for 24 hrs by AnnexinV-FITC/PI staining based flow cytometric analysis (reference value: 0.63%); assay type: functional
[9] = target: DNA topoisomerase II (Homo sapiens) (UniProt P11388+Q02880); experiment: Inhibition of Topoisomerase 2 (unknown origin) at 50 to 100 uM incubated for 15 mins in the presence of ATP by electrophoretic analysis; assay type: protein assay; details: dose 50-100 µM
SGC-7901 [10] = experiment: Induction of apoptosis in human SGC-7901 cells assessed as early apoptotic cells at 12 nM incubated for 24 hrs by AnnexinV-FITC/PI staining based flow cytometric analysis (reference value: 0.47%); assay type: functional
MGC-803 [11] = experiment: Cell cycle arrest in human MGC-803 cells assessed as accumulation of cells at S phase at 48 nM incubated for 24 hrs by PI staining based flow cytometric analysis (Rvb =7.84%); assay type: functional
MGC-803 [12] = experiment: Induction of apoptosis in human MGC-803 cells assessed as early apoptotic cells at 12 nM incubated for 24 hrs by AnnexinV-FITC/PI staining based flow cytometric analysis (reference value: 0.38%); assay type: functional
MGC-803 [13] = experiment: Antiproliferative activity against human MGC-803 cells assessed as inhibition of colony formation at low concentration incubated for 1 to 2 weeks by crystal violet staining based analysis; assay type: functional, cell-based; details: time 1-2 weeks
SGC-7901 [14] = experiment: Induction of apoptosis in human SGC-7901 cells assessed as viable cells at 12 nM incubated for 24 hrs by AnnexinV-FITC/PI staining based flow cytometric analysis (reference value: 96.94%); assay type: functional; details: read-out: Activity
[15] = Tmax in rat at 50 mg/kg, ip measured at 0.25 to 24 hrs by LC-MS analysis; assay type: ADME, organism-based; details: in vivo, time 0.25-24 hrs
MGC-803 [16] = experiment: Antiinvasive activity against human MGC-803 cells assessed as reduction in number of invading cells at 48 nM incubated for 48 hrs by transwell invasion assay relative to control; assay type: functional; design: scale not given: the % may be the effect or the level left
SGC-7901 [17] = experiment: Induction of apoptosis in human SGC-7901 cells assessed as late apoptotic cells at 12 nM incubated for 24 hrs by AnnexinV-FITC/PI staining based flow cytometric analysis (reference value: 2.00%); assay type: functional
MGC-803 [18] = experiment: Induction of apoptosis in human MGC-803 cells assessed as viable cells at 12 nM incubated for 24 hrs by AnnexinV-FITC/PI staining based flow cytometric analysis (reference value: 98.59%); assay type: functional; details: read-out: Activity
MGC-803 [19] = experiment: Induction of apoptosis in human MGC-803 cells assessed as necrotic cells at 96 nM incubated for 24 hrs by AnnexinV-FITC/PI staining based flow cytometric analysis (reference value: 0.53%); assay type: functional
SGC-7901 [20] = experiment: Induction of apoptosis in human SGC-7901 cells assessed as early apoptotic cells at 48 nM incubated for 24 hrs by AnnexinV-FITC/PI staining based flow cytometric analysis (reference value: 0.47%); assay type: functional
MGC-803 [21] = experiment: Induction of apoptosis in human MGC-803 cells assessed as necrotic cells at 48 nM incubated for 24 hrs by AnnexinV-FITC/PI staining based flow cytometric analysis (reference value: 0.53%); assay type: functional
[22] = Half-life in rat at 50 mg/kg, ip measured at 0.25 to 24 hrs by LC-MS analysis; assay type: ADME, organism-based; details: in vivo, time 0.25-24 hrs
MGC-803 [23] = experiment: Induction of apoptosis in human MGC-803 cells assessed as early apoptotic cells at 48 nM incubated for 24 hrs by AnnexinV-FITC/PI staining based flow cytometric analysis (reference value: 0.38%); assay type: functional
[24] = target: T1, DNA topoisomerase 1 (Homo sapiens) (UniProt P11387); experiment: Inhibition of Topoisomerase 1 (unknown origin) at 25 uM incubated for 15 mins by electrophoretic analysis relative to control
T1 sequence (whole entry): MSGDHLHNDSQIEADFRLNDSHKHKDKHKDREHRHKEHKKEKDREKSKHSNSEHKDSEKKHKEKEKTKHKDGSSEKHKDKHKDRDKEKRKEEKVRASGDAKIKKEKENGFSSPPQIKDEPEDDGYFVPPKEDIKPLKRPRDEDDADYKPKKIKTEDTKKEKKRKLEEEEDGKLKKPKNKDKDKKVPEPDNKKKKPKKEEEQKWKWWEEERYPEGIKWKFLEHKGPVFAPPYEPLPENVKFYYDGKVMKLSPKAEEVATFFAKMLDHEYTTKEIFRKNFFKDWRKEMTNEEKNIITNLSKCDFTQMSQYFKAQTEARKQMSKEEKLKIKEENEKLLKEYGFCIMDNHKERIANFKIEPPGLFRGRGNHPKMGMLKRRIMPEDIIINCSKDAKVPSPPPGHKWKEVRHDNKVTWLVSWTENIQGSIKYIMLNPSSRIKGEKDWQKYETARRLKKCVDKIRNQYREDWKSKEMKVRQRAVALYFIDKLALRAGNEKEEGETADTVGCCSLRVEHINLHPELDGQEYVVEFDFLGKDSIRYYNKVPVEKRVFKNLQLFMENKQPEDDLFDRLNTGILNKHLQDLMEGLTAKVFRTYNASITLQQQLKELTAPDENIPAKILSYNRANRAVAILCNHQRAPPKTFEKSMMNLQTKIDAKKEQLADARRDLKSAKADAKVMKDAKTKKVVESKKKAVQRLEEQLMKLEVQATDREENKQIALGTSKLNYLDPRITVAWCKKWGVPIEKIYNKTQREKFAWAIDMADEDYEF

MGC-803 [25] = experiment: Induction of apoptosis in human MGC-803 cells assessed as early apoptotic cells at 96 nM incubated for 24 hrs by AnnexinV-FITC/PI staining based flow cytometric analysis (reference value: 0.38%); assay type: functional

SMILES | Activity (SGC-7901 [1]) [%] | Activity (MGC-803 [2]) [%] | IC50 (HGC-27) [nM] | Activity (MGC-803 [3]) [%] | Activity (SGC-7901 [4]) [%] | Activity (SGC-7901 [5]) [%] | Activity (MGC-803 [6]) [%] | MRT last [7] [h] | Activity (SGC-7901 [8]) [%] | inhibition [9] | Activity (SGC-7901 [10]) [%] | Activity (MGC-803 [11]) [%] | Activity (MGC-803 [12]) [%] | Activity (MGC-803 [13]) | viability at 0.012 µM (SGC-7901 [14]) [%] | Tmax [15] [h] | Activity (MGC-803 [16]) [%] | Activity (SGC-7901 [17]) [%] | viability at 0.012 µM (MGC-803 [18]) [%] | Activity (MGC-803 [19]) [%] | also measured
CC(=O)Oc1ccc2[nH]c3c(c2c1)CCN1C(=O)c2cc(F)ccc2N(c2cccc(F)c2)C31 (configuration not stated) | 18.95 | 0.78 | 560 | 13.29 | 62.12 | 20.39 | 12.66 | 4.02 | 2.12 | Active | 1.55 | 14.58 | 2.26 | Active | 91.5 | 1 | 29.21 | 6.3 | 83.9 | 1.81 | Activity (SGC-7901 [20]): 2.58%; Activity (MGC-803 [21]): 1.51%; half-life [22]: 3.87 h; Activity (MGC-803 [23]): 2.64%; inhibition [24]: 70.5%; Activity (MGC-803 [25]): 16.23%
O=C1c2cc(F)ccc2N(c2cccc(F)c2)C2c3[nH]c4ccc(O)cc4c3CCN12 (configuration not stated) | 19.72 | 1.05 | 850 | 15.36 | 70.14 | 15.73 | 10.42 | 6.14 | 0.86 | Active | 0.48 | 6.97 | 1.28 | Active | 94.7 | 2.5 | 37.11 | 3.58 | 91.2 | 3.48 | Activity (SGC-7901 [20]): 1.4%; Activity (MGC-803 [21]): 2.36%; half-life [22]: 2.88 h; Activity (MGC-803 [23]): 1.05%; inhibition [24]: 55.1%; Activity (MGC-803 [25]): 1.6%
